Assay results as given in patent US20260207578A1, “COMPOUND BASED ON SULFUR/OXYGEN SUBSTITUTED GLUTARIMIDE-BASED ISOINDOLINONE SKELETON AND USE THEREOF” (Gluetacs Therapeutics (Shanghai) Co., LTD., priority 2022, published 2026).

Tests used:
[1] = molecular target: T1, human Cereblon WT GST-tagged protein (Homo sapiens, UniProt Q96SW2); assay: CRBN-binding affinity, HTRF (CEREBLON BINDING kit); conditions: displacement of Thalidomide-Re reagent, 3 hours at room temperature
T1 construct: purchased CISBIO 64BDCRBNPEH
Protocol: The CEREBLON BINDING kits (specification: 10,000 tests; product number: Catalog #64BDCRBNPEH; CISBIO company) was used to determine the CRBN binding ability of the compounds to be tested through a HTRF method (homogeneous time-resolved fluorescence). The specific methods are as follows: • 1. […] Then, 2.5 μL of human Cereblon WT GST-tagged protein solution was added to each well. Finally, 5 μL of the thoroughly mixed Thalidomide-Re reagent and GST Eu antibody working solution were added to each of the aforementioned wells. […] The blank control wells were sequentially added with 2.5 μL of diluent #9 (1×) solution, 2.5 μL of PROTAC binding buffer, and 5 μL of thoroughly mixed Thalidomide-Re reagent and GST Eu antibody working solution. • 4.
OD 620 nmcompound is the absorbance value of each well of the compounds to be tested of the present disclosure at an emission wavelength of 620 nm. […] OD 620 nmcontrol is the absorbance value of the blank control well at an emission wavelength of 620 nm. […] OD 620 nmStd0 is the absorbance value of the solvent control well at an emission wavelength of 620 nm.

Wee1 = molecular target: T2, Wee1 (Homo sapiens, UniProt P30291+Q96SW2); assay: Western-blot assay, substrate protein in hPBMCs; type: cell-based; conditions: hPBMC cells, 24 hours, tested at 50 nM and 500 nM, table does not say which
T2 construct: endogenous in cells; host or cells: human PBMCs (Milecell Biotechnologies)
Protocol: (§1) The effect of the compounds of the present disclosure on the expression of target proteins in cells was detected using conventional Western blot analysis.
(§2) Human peripheral blood mononuclear cells (hPBMCs) at a density of 1×10^6 cells/mL were thawed according to the PBMC Recovery Protocol (Milecell Biotechnologies Inc, Shanghai).
(§3) After 24 hours of compounds treatment, cells were harvested and lysed in RIPA protein lysate containing phosphatase inhibitors on ice for 30-60 min, followed by centrifugation. The supernatant was aspirated as the extracted total cell protein. The protein concentration of the supernatant was determined using the conventional BCA (Bicinchoninic Acid) assay. The supernatant was then mixed with 4× SDS sample loading buffer, denatured at 95° C. for 5 minutes, and then subjected to SDS-PAGE electrophoresis on a polyacrylamide gel. Proteins were then transferred to a nitrocellulose (NC) membrane, blocked at room temperature for 1-2 h, and processed for antibody incubation and detection according to the manufacturer's instructions (Cell Signaling Technology).
(§4) Half-Maximal Degradation Concentration value (the drug concentration required for degrading proteins by 50%, abbreviated as DC50) reads method: comparing the grayscale values of Western blot bands from drug-treated samples with those from blank DMSO-treated controls, and identifying the drug concentration range at which the grayscale value is half that of the DMSO-treated control bands.
(§5) DC50 values can be calculated using ImageJ software to measure grayscale values of Western blot bands from drug-treated samples. The concentration-response curve is fitted to estimate the drug concentration corresponding to half the grayscale value.
(§6) Target protein remaining (%) refers to the percentage of target protein remaining in hPBMC cells after treatment with protein degrader compounds.
(§7) Calculation method for protein remaining (%): Use ImageJ software to measure grayscale values of Western blot bands from drug (protein degrader)-treated samples. The grayscale value of drug-treated bands is divided by that of internal control protein bands, and the resulting quotient is normalized to obtain the relative percentage of remaining target protein after protein degrader treatment.
(§8) Target protein degradation rate (%)=100%−target protein remaining (%).

GSPT1 = molecular target: T3, GSPT1 (Homo sapiens, UniProt P15170+Q96SW2); assay: Western-blot assay, substrate protein in hPBMCs; type: cell-based; conditions: hPBMC cells, 24 hours, tested at 50 nM and 500 nM, table does not say which
T3 construct: endogenous in cells; host or cells: human PBMCs (Milecell Biotechnologies)
Protocol: as §1, §2, §3, §4, §5, §6, §7, §8

T3 sequence (P15170 whole entry): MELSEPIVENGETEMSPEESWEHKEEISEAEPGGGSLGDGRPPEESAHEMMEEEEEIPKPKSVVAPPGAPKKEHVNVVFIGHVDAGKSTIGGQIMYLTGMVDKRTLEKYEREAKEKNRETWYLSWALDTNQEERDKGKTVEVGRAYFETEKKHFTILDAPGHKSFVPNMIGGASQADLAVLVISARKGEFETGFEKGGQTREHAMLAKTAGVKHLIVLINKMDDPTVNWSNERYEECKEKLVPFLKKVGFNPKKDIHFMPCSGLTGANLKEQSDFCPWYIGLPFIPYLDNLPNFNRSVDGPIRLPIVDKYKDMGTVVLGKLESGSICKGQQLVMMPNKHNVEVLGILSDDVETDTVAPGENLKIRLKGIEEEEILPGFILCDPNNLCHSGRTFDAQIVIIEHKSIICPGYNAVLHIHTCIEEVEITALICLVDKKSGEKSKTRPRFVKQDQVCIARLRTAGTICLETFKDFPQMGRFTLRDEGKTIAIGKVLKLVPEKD
T3 sequence (Q96SW2 whole entry): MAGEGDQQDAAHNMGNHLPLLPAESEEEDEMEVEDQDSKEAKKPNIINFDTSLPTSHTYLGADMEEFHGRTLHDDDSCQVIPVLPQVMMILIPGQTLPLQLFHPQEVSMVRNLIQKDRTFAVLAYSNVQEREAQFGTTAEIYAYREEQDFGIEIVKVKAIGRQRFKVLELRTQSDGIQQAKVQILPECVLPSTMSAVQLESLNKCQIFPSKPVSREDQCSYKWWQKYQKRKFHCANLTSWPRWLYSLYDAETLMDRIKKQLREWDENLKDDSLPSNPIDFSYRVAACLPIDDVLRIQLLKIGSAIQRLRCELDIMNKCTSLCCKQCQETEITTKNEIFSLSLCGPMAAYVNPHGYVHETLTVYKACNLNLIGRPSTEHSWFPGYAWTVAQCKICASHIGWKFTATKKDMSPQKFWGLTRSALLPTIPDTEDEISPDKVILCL
T3 sequence (Q16531 whole entry partner): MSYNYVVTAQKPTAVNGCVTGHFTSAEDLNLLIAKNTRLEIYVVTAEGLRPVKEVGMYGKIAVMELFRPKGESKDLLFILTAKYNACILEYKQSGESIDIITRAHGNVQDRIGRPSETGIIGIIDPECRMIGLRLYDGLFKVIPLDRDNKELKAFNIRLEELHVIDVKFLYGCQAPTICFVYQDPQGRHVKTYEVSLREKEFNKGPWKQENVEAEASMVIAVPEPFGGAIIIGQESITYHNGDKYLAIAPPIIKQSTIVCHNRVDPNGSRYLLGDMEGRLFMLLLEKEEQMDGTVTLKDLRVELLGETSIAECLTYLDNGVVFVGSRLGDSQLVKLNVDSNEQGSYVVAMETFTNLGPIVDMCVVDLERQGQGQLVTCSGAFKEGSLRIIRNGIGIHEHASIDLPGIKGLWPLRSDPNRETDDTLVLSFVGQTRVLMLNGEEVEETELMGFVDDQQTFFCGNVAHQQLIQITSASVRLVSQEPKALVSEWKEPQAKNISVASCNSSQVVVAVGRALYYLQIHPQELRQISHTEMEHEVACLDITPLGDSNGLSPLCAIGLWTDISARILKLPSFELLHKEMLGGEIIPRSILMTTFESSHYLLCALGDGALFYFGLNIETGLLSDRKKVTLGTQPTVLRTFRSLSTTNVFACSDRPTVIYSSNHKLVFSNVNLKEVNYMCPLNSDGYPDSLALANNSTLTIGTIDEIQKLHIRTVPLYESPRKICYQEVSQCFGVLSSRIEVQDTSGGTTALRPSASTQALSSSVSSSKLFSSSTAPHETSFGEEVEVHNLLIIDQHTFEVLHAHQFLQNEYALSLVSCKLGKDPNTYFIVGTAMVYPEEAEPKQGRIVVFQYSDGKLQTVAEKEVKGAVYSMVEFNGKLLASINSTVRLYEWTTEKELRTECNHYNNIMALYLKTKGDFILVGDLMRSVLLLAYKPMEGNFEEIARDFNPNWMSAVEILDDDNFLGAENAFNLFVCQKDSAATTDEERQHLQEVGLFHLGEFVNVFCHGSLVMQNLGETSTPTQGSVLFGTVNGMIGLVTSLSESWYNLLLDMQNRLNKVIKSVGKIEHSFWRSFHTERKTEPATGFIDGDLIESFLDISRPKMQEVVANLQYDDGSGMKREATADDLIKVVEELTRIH
T2 sequence (P30291 whole entry): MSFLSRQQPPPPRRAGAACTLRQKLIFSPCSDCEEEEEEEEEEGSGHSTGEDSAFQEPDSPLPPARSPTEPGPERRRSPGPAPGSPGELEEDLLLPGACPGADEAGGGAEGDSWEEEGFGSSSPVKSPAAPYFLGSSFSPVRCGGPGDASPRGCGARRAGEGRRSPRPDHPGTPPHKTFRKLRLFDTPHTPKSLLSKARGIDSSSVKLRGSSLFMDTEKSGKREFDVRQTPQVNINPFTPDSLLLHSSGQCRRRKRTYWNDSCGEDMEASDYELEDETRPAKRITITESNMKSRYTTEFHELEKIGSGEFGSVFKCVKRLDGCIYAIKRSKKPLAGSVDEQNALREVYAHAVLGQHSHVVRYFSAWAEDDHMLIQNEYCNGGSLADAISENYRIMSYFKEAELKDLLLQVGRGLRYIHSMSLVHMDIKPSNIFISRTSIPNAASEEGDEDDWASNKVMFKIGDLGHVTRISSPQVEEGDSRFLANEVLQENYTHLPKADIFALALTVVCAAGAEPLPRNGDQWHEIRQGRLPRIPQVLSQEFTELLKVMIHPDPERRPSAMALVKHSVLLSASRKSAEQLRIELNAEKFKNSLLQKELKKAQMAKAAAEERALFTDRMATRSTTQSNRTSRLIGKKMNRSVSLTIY
T2 sequence (Q96SW2 whole entry): as the sequence (Q96SW2 whole entry) above
T2 sequence (Q16531 whole entry partner): as the sequence (Q16531 whole entry partner) above
T1 sequence (Q96SW2 whole entry): as the sequence (Q96SW2 whole entry) above

Compound	IC50 [1]	substrate protein remaining % (Wee1)	substrate protein remaining % (GSPT1)
O=C1CCC(N2Cc3cc(SC4CN(CC5=C(c6ccc(F)cc6)CCOC5)C4)ccc3C2=O)C(=O)N1 (stereo not shown) [GT-06513, 3-(5-((1-((4-(4-fluorophenyl)-5,6-dihydro-2H-pyran-3-yl)methyl)azetidin-3-yl)thio)-1-oxoisoindolin-2-yl)piperidine-2,6-dione]	< 0.5 µM		A (0%≤ substrate protein remaining % ≤80%)
O=C1CCC(N2Cc3cc(OC4CN(C(=O)c5ccccc5-c5ccc(Cl)cc5)C4)ccc3C2=O)C(=O)N1 (stereo not shown) [GT-06183, 3-(5-((1-(4′-chloro-[1,1′-biphenyl]-2-carbonyl)azetidin-3-yl)oxy)-1-oxoisoindolin-2-yl)piperidine-2,6-dione]	< 0.5 µM	A (0%≤ substrate protein remaining % ≤80%)	
O=C1CCC(N2Cc3cc(OC4CNC4)ccc3C2=O)C(=O)N1 (stereo not shown) [GT-03614, 3-(5-(azetidin-3-yloxy)-1-oxoisoindolin-2-yl)piperidine-2,6-dione]		A (0%≤ substrate protein remaining % ≤80%)	
O=C1CCC(N2Cc3cc(SC4CCNC4)ccc3C2=O)C(=O)N1 (stereo not shown) [GT-04309, 3-(1-oxo-5-(pyrrolidin-3-ylthio)isoindolin-2-yl)piperidine-2,6-dione]			A (0%≤ substrate protein remaining % ≤80%)
COc1ccc(C(c2ccc(OC)cc2)N2CC(Sc3ccc4c(c3)CN(C3CCC(=O)NC3=O)C4=O)C2)cc1 (stereo not shown) [GT-06923, 3-(5-((1-(bis(4-methoxyphenyl)methyl)azetidin-3-yl)thio)-1-oxoisoindolin-2-yl)piperidine-2,6-dione]	< 0.5 µM		
O=C1CCC(N2Cc3cc(SC4CCCN(C(=O)c5ccccc5-c5ccc(Cl)cc5)CC4)ccc3C2=O)C(=O)N1 (stereo not shown) [GT-06644, 3-(5-((1-(4′-chloro-[1,1′-biphenyl]-2-carbonyl)azepan-4-yl)thio)-1-oxoisoindolin-2-yl)piperidine-2,6-dione]	< 0.5 µM		A (0%≤ substrate protein remaining % ≤80%)
CC1(C)CCC(C(=O)N2CCC(Sc3ccc4c(c3)CN(C3CCC(=O)NC3=O)C4=O)C2)=C(c2ccc(Cl)cc2)C1 (stereo not shown) [GT-06139, 3-(5-((1-(4′-chloro-5,5-dimethyl-3,4,5,6-tetrahydro-[1,1′-biphenyl]-2-carbonyl)pyrrolidin-3-yl)thio)-1-oxoisoindolin-2-yl)piperidine-2,6-dione]	0.5 to 1 µM		
O=C1CCC(N2Cc3cc(SC4CN(Cc5ccc(-c6ccco6)s5)C4)ccc3C2=O)C(=O)N1 (stereo not shown) [GT-06517, 3-(5-((1-((5-(furan-2-yl)thiophen-2-yl)methyl)azetidin-3-yl)thio)-1-oxoisoindolin-2-yl)piperidine-2,6-dione]	< 0.5 µM		
O=C1CCC(N2Cc3cc(OC4CCCNCC4)ccc3C2=O)C(=O)N1 (stereo not shown) [GT-07003, 3-(5-(azepan-4-yloxy)-1-oxoisoindolin-2-yl)piperidine-2,6-dione]		A (0%≤ substrate protein remaining % ≤80%)	
O=C1CCC(N2Cc3cc(SC4CCN(Cc5ccccc5-c5ccc(Cl)cc5)C4)ccc3C2=O)C(=O)N1 (stereo not shown) [GT-04195, 3-(5-((1-((4′-chloro-[1,1′-biphenyl]-2-yl)methyl)pyrrolidin-3-yl)thio)-1-oxoisoindolin-2-yl)piperidine-2,6-dione]	1 to 1.9 µM		
O=C1CCC(N2Cc3cc(SC4CN(C(c5ccc(Cl)cc5)c5ccc(Cl)cc5)C4)ccc3C2=O)C(=O)N1 (stereo not shown) [GT-06504, 3-(5-((1-(bis(4-chlorophenyl)methyl)azetidin-3-yl)thio)-1-oxoisoindolin-2-yl)piperidine-2,6-dione]	0.5 to 1 µM		
O=C1CCC(N2Cc3cc(OC4CN(C(c5ccc(Cl)cc5)c5ccc(Cl)cc5)C4)ccc3C2=O)C(=O)N1 (stereo not shown) [GT-06520, 3-(5-((1-(bis(4-chlorophenyl)methyl)azetidin-3-yl)oxy)-1-oxoisoindolin-2-yl)piperidine-2,6-dione]	1 to 1.9 µM		A (0%≤ substrate protein remaining % ≤80%)
O=C1CCC(N2Cc3cc(SC4CN(C(c5ccccc5)c5cccnc5)C4)ccc3C2=O)C(=O)N1 (stereo not shown) [GT-06807, 3-(1-oxo-5-((1-(phenyl(pyridin-3-yl)methyl)azetidin-3-yl)thio)isoindolin-2-yl)piperidine-2,6-dione]	< 0.5 µM		
CC1(C)CCC(CN2CC(Sc3ccc4c(c3)C(=O)N(C3CCC(=O)NC3=O)C4)C2)=C(c2ccc(Cl)cc2)C1 (stereo not shown) [GT-06757, 3-(6-((1-((4′-chloro-5,5-dimethyl-3,4,5,6-tetrahydro-[1,1′-biphenyl]-2-yl)methyl)azetidin-3-yl)thio)-1-oxoisoindolin-2-yl)piperidine-2,6-dione]	1 to 1.9 µM		

Now from value to compound, other results behind:

IC50 [1]	Compound	substrate protein remaining % (Wee1)	substrate protein remaining % (GSPT1)
1 to 1.9 µM	CC1(C)CCC(C(=O)N2CCC(Sc3ccc4c(c3)CN(C3CCC(=O)NC3=O)C4=O)C(F)(F)C2)=C(c2ccc(Cl)cc2)C1 (stereo not shown) [GT-07017, 3-(5-((1-(4′-chloro-5,5-dimethyl-3,4,5,6-tetrahydro-[1,1′-biphenyl]-2-carbonyl)-3,3-difluoropiperidin-4-yl)thio)-1-oxoisoindolin-2-yl)piperidine-2,6-dione]		
0.5 to 1 µM	O=C1CCC(N2Cc3cc(SC4CCNCC4(F)F)ccc3C2=O)C(=O)N1 (stereo not shown) [GT-06999, 3-(5-((3,3-difluoropiperidin-4-yl)thio)-1-oxoisoindolin-2-yl)piperidine-2,6-dione]		
< 0.5 µM	O=C1CCC(N2Cc3cc(SC4C[C@@H]5CN(C(=O)c6ccccc6-c6ccc(Cl)cc6)C[C@H]5C4)ccc3C2=O)C(=O)N1 (stereo partly drawn) [GT-07023, 3-(5-(((3aS,6aS)-2-(4′-chloro-[1,1′-biphenyl]-2-carbonyl)octahydro-cyclopenta[c]pyrrol-5-yl)thio)-1-oxoisoindolin-2-yl)piperidine-2,6-dione]	A (0%≤ substrate protein remaining % ≤80%)	
< 0.5 µM	CC1(C)CCC(C(=O)N2C[C@H]3CC(Oc4ccc5c(c4)CN(C4CCC(=O)NC4=O)C5=O)C[C@H]3C2)=C(c2ccc(Cl)cc2)C1 (stereo partly drawn) [GT-07019, 3-(5-(((3aR,6aS)-2-(4′-chloro-5,5-dimethyl-3,4,5,6-tetrahydro-[1,1′-biphenyl]-2-carbonyl)octahydro-cyclopenta[c]pyrrol-5-yl)oxy)-1-oxoisoindolin-2-yl)piperidine-2,6-dione]	A (0%≤ substrate protein remaining % ≤80%)	
1 to 1.9 µM	O=C1CCC(N2Cc3ccc(SC4CNC4)cc3C2=O)C(=O)N1 (stereo not shown) [GT-06993, 3-(6-(azetidin-3-ylthio)-1-oxoisoindolin-2-yl)piperidine-2,6-dione]		
1 to 1.9 µM	O=C1CCC(N2Cc3cc(SC4CC5CNCC5C4)ccc3C2=O)C(=O)N1 (stereo not shown) [GT-06996, 3-(5-((octahydrocyclopenta[c]pyrrol-5-yl)thio)-1-oxoisoindolin-2-yl)piperidine-2,6-dione]		
< 0.5 µM	CC1(C)CCC(C(=O)N2CCCC(Oc3ccc4c(c3)CN(C3CCC(=O)NC3=O)C4=O)CC2)=C(c2ccc(Cl)cc2)C1 (stereo not shown) [GT-07018, 3-(5-((1-(4′-chloro-5,5-dimethyl-3,4,5,6-tetrahydro-[1,1′-biphenyl]-2-carbonyl)azepan-4-yl)oxy)-1-oxoisoindolin-2-yl)piperidine-2,6-dione]		
0.5 to 1 µM	O=C1CCC(N2Cc3c(SC4CNC4)cccc3C2=O)C(=O)N1 (stereo not shown) [GT-06992, 3-(4-(azetidin-3-ylthio)-1-oxoisoindolin-2-yl)piperidine-2,6-dione]		
1 to 1.9 µM	O=C1CCC(N2Cc3cc(SC4CCC5(CCNCC5)CC4)ccc3C2=O)C(=O)N1 (stereo not shown) [GT-06998, 3-(5-((3-azaspiro[5.5]undecan-9-yl)thio)-1-oxoisoindolin-2-yl)piperidine-2,6-dione]		
< 0.5 µM	O=C1CCC(N2Cc3c(OC4CNC4)cccc3C2=O)C(=O)N1 (stereo not shown) [GT-07000, 3-(4-(azetidin-3-yloxy)-1-oxoisoindolin-2-yl)piperidine-2,6-dione]		
1 to 1.9 µM	O=C1CCC(N2Cc3cc(OC4CC5CNCC5C4)ccc3C2=O)C(=O)N1 (stereo not shown) [GT-07004, 3-(5-((octahydrocyclopenta[c]pyrrol-5-yl)oxy)-1-oxoisoindolin-2-yl)piperidine-2,6-dione]		
